Results published in publication PMC9455738, “Low-Dose Near-Infrared Light-Activated Mitochondria-Targeting Photosensitizers for PDT Cancer Therapy” (International Journal of Molecular Sciences, 2022).
Where two headings read alike, the source gives them in different places.

Assays:
Format in all cases: cell-based, human
HeLa cells = assay: Resazurin cytotoxicity, dark and after white light projector irradiation (>600 nm), HeLa
Protocol: (§1) Therefore, the cytotoxicity of the Pc-based compounds was evaluated against different cell lines both under irradiation and in the dark. Compounds LC31, MLC31, and DMLC31Pt, as well as cisplatin were screened against several cancer cell lines representative of human cervical cancer (HeLa), cisplatin-sensitive human ovarian carcinoma (A2780), cisplatin-resistant ovarian endometrioid adenocarcinoma (A2780/CP70), and non-cancerous fibroblast (MRC-5) cell lines. […]
(§2) Human cervical carc in oma cells (HeLa) were cultured in DMEM (Gibco) supplemented with 5% fe t a l calf serum (FCS, Gibco), 100 U/mL penicillin, 100 µg/mL st re pto myc i n . The normal human fe t a l lung fibroblast cell line (MRC‐5) wa s grown in MEM medium (Gibco) supplemented with 10% FCS (Gibco), penicillin (100 U/mL), and st re pto myc i n (100 µg/mL). The human ovarian carc in oma A2780 cell line and a cisplatin‐resistant subline CP70 were cultured in RPMI‐1640 medium (Gibco) supplemented with 10% FCS (Gibco), penicillin (100 U/mL), and st re pto myc in (100 μg/mL). The cells were cultured at 37 °C an d in 5% CO2 humidified at mo sph e re .
(§3) Cy to toxicit y Determination
(§4) The c y totoxic ity of the PSs in the dark and upon light irradiation was evaluated in several cell lines, using a re sa zu r in‐based fluorometric cell viability assay (Sigma‐Aldrich, Darmstadt, Germany). Stock solutions of the Pc agents (5 mM) were prepared in DMF and sto re d in the dark. The sto c k solutions were further diluted with co mp l ete medium to the desired working concentrations. Fo r an exp eriment , 100 µL aliquots of cells in growth medium were seeded in 96‐well plates (density of 2.5 × 10^3 cells/well fo r HeLa, 4 × 10^3 cells/well fo r A2780, and 1.5 × 10^3 cells/well fo r MRC‐5 cells) and incubated at 37 °C, 5% CO2 and 100% humidity. […] At the end of the incubation period, fluorescence of the highly re d fluorescent re so r u f in product (λex = 540 nm, λem = 590 nm) was quantified using a SpectraMax M5 microplate re a d e r (Molecular Device, San Jose, USA). […]

A2780 cells = assay: Resazurin cytotoxicity, dark and after white light projector irradiation (>600 nm), A2780
Protocol: as §1, §2, §3, §4

A2780/CP70 cells = assay: Resazurin cytotoxicity, dark and after white light projector irradiation (>600 nm), A2780/CP70
Protocol: as §1, §2, §3, §4

MRC-5 cells = assay: Resazurin cytotoxicity, dark and after white light projector irradiation (>600 nm), MRC-5
Protocol: as §1, §2, §3, §4

`N.N.[Cl][Pt][Cl]` [cisplatin, Cis-[PtCl2(NH3)2]] was tested, and the “p.i. HeLa (phototoxicity index, IC50 dark / IC50 light)” value (HeLa cells; 6.96 J cm^−2) was 0.76, the IC50 (HeLa cells; 4 h incubation in the dark, further 72 h incubation, read-out: IC50 HeLa Dark) was 1300 nM and the IC50 (HeLa cells; 4 h incubation, white light projector cutoff below 600 nm, 5.8 mW cm^−2, 6.96 J cm^−2, further 72 h, read-out: IC50 HeLa Light) was 1700 nM. For the same compound, the “p.i. A2780” value (A2780 cells; 6.96 J cm^−2) was 0.7, the IC50 (A2780 cells; 4 h incubation in the dark, further 72 h incubation, read-out: IC50 A2780 Dark) was 2.8 µM and the IC50 (A2780 cells; 4 h incubation, white light projector cutoff below 600 nm, 5.8 mW cm^−2, 6.96 J cm^−2, read-out: IC50 A2780 Light) was 4 µM. For the same compound, the IC50 (A2780/CP70 cells; A2780/CP70 (cisplatin resistant), 4 h incubation in the dark, read-out: IC50 A2780/CP70 Dark) was 102 µM, the “p.i. A2780/CP70” value (A2780/CP70 cells; A2780/CP70, 6.96 J cm^−2) was 0.79 and the IC50 (A2780/CP70 cells; A2780/CP70, 4 h incubation, white light projector cutoff below 600 nm, 5.8 mW cm^−2, 6.96 J cm^−2, read-out: IC50 A2780/CP70 Light) was 129 µM. For the same compound, the “p.i. MRC-5” value (MRC-5 cells; MRC-5, 6.96 J cm^−2) was 1.2, the IC50 (MRC-5 cells; MRC-5, 4 h incubation, white light projector cutoff below 600 nm, 5.8 mW cm^−2, 6.96 J cm^−2, read-out: IC50 MRC-5 Light) was 4.5 µM and the IC50 (MRC-5 cells; MRC-5 non-cancerous fibroblast, 4 h incubation in the dark, read-out: IC50 MRC-5 Dark) was 5.4 µM.
